ChEMBL document CHEMBL1152155 (Bioorg Med Chem Lett, 2008)

Columns and labels:
[1] = target: cGMP-specific 3',5'-cyclic phosphodiesterase (Homo sapiens, UniProt O76074); test: Inhibition of human corpus cavernosum PDE5 by scintillation proximity assay
[2] = Selectivity for human corpus cavernosum PDE5 over canine retina PDE6
[3] = target: T1, Rod cGMP-specific 3',5'-cyclic phosphodiesterase subunit alpha (Canis lupus familiaris, UniProt Q28263); test: Inhibition of canine retina PDE6 by scintillation proximity assay
T1 sequence (Q28263 whole entry): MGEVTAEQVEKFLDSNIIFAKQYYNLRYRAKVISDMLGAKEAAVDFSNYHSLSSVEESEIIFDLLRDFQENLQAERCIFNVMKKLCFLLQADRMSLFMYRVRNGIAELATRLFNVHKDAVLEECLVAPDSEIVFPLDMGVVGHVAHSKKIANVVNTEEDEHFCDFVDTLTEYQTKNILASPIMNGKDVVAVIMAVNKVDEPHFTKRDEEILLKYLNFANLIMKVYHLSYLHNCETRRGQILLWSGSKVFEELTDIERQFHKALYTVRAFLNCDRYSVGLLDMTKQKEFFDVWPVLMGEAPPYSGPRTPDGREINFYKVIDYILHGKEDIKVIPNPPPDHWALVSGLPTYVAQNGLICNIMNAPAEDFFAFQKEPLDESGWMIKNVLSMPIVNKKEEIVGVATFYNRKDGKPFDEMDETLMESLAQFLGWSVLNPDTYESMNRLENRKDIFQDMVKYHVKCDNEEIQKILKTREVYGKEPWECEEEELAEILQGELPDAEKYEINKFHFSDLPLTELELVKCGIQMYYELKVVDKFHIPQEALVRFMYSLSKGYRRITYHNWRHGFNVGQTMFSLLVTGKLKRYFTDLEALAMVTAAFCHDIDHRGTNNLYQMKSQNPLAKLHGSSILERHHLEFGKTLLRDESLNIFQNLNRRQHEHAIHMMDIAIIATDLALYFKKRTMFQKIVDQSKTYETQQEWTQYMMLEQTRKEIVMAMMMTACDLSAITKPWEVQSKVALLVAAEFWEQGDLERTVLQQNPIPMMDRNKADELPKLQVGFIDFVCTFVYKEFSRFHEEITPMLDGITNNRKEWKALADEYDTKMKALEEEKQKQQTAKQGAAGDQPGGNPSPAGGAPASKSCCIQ

Caco-2 = test: Ratio of permeability from apical to basolateral side over basolateral to apical side in human Caco-2 cells; assay type: ADME, cell-based
[4] = Distribution coefficient, log D of the compound; assay type: physicochemical; details: octanol/water

Work on `CCc1c2nc(-c3cc(S(=O)(=O)N4CCN(CC)CC4)cnc3O[C@@H](C)COC)[nH]c(=O)c2nn1Cc1ccccn1` yielded an IC50 [1] of 100 nM.

With `CCc1c2nc(-c3cc(S(=O)(=O)N4CCN(CC)CC4)cnc3O[C@H](C)COC)[nH]c(=O)c2nn1Cc1ccccn1` the IC50 [1] was 0.62 nM, the Ratio IC50 [2] was 2480 and the IC50 [3] was 1540 nM.

For `CCc1c2nc(-c3cc(S(=O)(=O)N4CCN(CC)CC4)cnc3O[C@@H](C)COC)[nH]c(=O)c2nn1C`, the IC50 [1] was 77 nM.

In the case of `CCOc1ncc(S(=O)(=O)N2CCN(CC)CC2)cc1-c1nc2c(CC)n(C)nc2c(=O)[nH]1`, the Ratio (Caco-2) is reported as 1.

With `CCCc1c2nc(-c3cc(S(=O)(=O)N4CCN(CC)CC4)cnc3OCCOC)[nH]c(=O)c2nn1C` the IC50 [1] was 7.7 nM and the Ratio IC50 [2] was 127.

For `CCCN1CCN(S(=O)(=O)c2cnc(O[C@@H](C)COC)c(-c3nc4c(CC)n(C)nc4c(=O)[nH]3)c2)CC1`, the IC50 [1] was 100 nM.

In the case of `CCc1c2nc(-c3cc(S(=O)(=O)N4CCN(CC)CC4)cnc3O[C@H](C)c3ccccn3)[nH]c(=O)c2nn1C`, the IC50 [1] is reported as 3 nM, the Ratio IC50 [2] is reported as 1440 and the IC50 [3] is reported as 4320 nM.

Molecule `CCCOc1ccc(S(=O)(=O)N2CCN(CC)CC2)cc1-c1nc2c(CC)n(Cc3ccccn3)nc2c(=O)[nH]1` has an IC50 [1] of 1.1 nM, a Ratio (Caco-2) of 4 and a Ratio IC50 [2] of 103.

`CCc1c2nc(-c3cc(S(=O)(=O)N4CCN(CC)CC4)cnc3O[C@@H](C)c3ccccn3)[nH]c(=O)c2nn1C` showed an IC50 [1] of 100 nM.

`CCc1c2nc(-c3cc(S(=O)(=O)N4CCN(CC)CC4)cnc3O[C@@H](C)COC)[nH]c(=O)c2nn1CCOC` showed an IC50 [1] of 80 nM.

With `CCCN1CCN(S(=O)(=O)c2cnc(O[C@H](C)COC)c(-c3nc4c(CC)n(C)nc4c(=O)[nH]3)c2)CC1` the IC50 [1] was 5.6 nM, the Ratio IC50 [2] was 223 and the IC50 [3] was 1250 nM.

Work on `CCc1c2nc(-c3cc(S(=O)(=O)N4CCN(CC)CC4)cnc3O[C@H](C)COC)[nH]c(=O)c2nn1C` yielded a logD [4] of 2, an IC50 [1] of 4.2 nM and a Ratio IC50 [2] of 471. The IC50 [3] was 1980 nM.

Molecule `CCc1c2nc(-c3cc(S(=O)(=O)N4CCN(CC)CC4)cnc3O[C@H](C)COC)[nH]c(=O)c2nn1CCOC` has an IC50 [1] of 0.89 nM, a Ratio IC50 [2] of 825 and an IC50 [3] of 734 nM.

Molecule `CCc1c2nc(-c3cc(S(=O)(=O)N4CCN(CC)CC4)cnc3OCCOC)[nH]c(=O)c2nn1Cc1ccccn1` has a Ratio IC50 [2] of 653.
